{"source": "patent US20100298166A1", "about": "“CELL POPULATIONS FOR POLYPEPTIDE ANALYSIS AND USES OF SAME” (priority 2008, published 2010)", "type_in_all_cases": "cell-based, human", "key": {"TOP1 [1]": {"tested_on": "TOP1", "test": "Immunoblots with anti-TOP1 and anti-GFP after CPT", "procedure": "Immunoblots against 20 selected proteins: Total cell lysates were prepared with RIPA buffer (Pierce) according to manufacturer's instructions. The protein concentrations were determined by BCA protein assay kit (Thermo scientific). Equal amounts of proteins were resolved on SDS-PAGE and subjected to immunoblotting analysis by using the antibodies listed below. The intensity of protein bands was quantified by using ImageJ software.\nAnti-Myosin IIA (M8064) and anti-GFP (11814460001) antibodies were from Sigma and Roche, respectively."}, "[2]": {"tested_on": "thyredoxin and thyredoxin reductase", "test": "Nuclear/cytoplasmic localization changes of tagged proteins following drug addition", "procedure": "(§1) Long period time-lapse microscopy: Time-lapse movies were obtained (at 20× magnification) as described by Sigal et al. (Sigal, Milo et al. 2006, supra) with an automated, incubated (including humidity and CO2 control) Leica DMIRE2 inverted fluorescence microscope and an ORCA ER cooled CCD camera (Hamamatsu Photonics). The system was controlled by ImagePro5 Plus (Media Cybernetics) software which integrated time-lapse acquisition, stage movement, and software based auto-focus. During the experiment, cells were grown and visualized in 12-well coverslip bottom plates (MatTek) coated with […] fibronectin (Sigma). For each well time lapse movies were obtained at four fields of view. Each movie was taken at a time resolution of 20 minutes and was filmed for at least three days (over 200 time points). Each time point included three images—phase contrast, red and yellow fluorescence.\nImage analysis of time lapse movies: A custom written image analysis tool was used developed using the Matlab image processing toolbox environment (Mathworks, Natick, Mass.). […]\nNuclear localization changes following drug addition: The localization of each protein across the experiment was analyzed and the ratio of cytoplasmic to nuclear fluorescence was followed as a function of time. […] Both rapid and slow localization changes between the cytoplasm and the nucleus were detected (FIGS. 14A-C)."}, "[3]": {"tested_on": "YFP tagged proteins in H1299 cells", "test": "Temporal profiles of total fluorescence and cell-cell variability of YFP tagged proteins in response to drug", "procedure": "as §1\nImage analysis of time lapse movies: A custom written image analysis tool was used developed using the Matlab image processing toolbox environment (Mathworks, Natick, Mass.). The main steps include; image correction, segmentation, tracking of the cells and automated identification of cell phenotypes (mitosis and cell death). Image background correction (flat field correction and background subtraction) was carried out as previously described (Sigal, Milo et al. 2006, supra). No significant bleaching was observed (on average less than 3% over the duration of the experiment). […] The main steps of the segmentation process are: 1) Differentiation between cells and background by global image threshold using Otsu's method (Otsu 1979, IEEE Transactions on Systems, Man, and Cybernetics 9(1): 62-66); 2) Segmentation of neighboring cells by applying the seeded watershed segmentation algorithm. […]\nProtein dynamics clustering: The five average population dynamics profiles depicted in FIG. 8B were generated in the following manner: The levels of each protein were smoothed using a median filter and linearly scaled between −1 and 1. The distance between every pair of proteins was measured in terms of Pearson correlation and clustering was performed using a k-means algorithm (reproducibility of results using different seeds is >99%). […]"}, "TOP1 [4]": {"tested_on": "TOP1", "conditions": "for effects on TOP1 (nucleolar exit, degradation, cytoplasmic accumulation): other DNA damaging drugs", "procedure": "as §1\n(§2) Drug Materials: Camptothecin (CPT; C9911 Sigma), was dissolved in DMSO (hybri-max, D2650 Sigma) to achieve a stock solution of 10 mM. In each experiment, drug was diluted to 10 μM in a transparent growth medium (RPMI, X PenStrep, 10% FCS, w/o riboflavin, w/o phenol red, Bet Haemek). Growth medium (2 ml) was replaced by the diluted drug (2 ml) under the microscope. The same procedure was carried out for the following drugs: Etoposide (E1383 Sigma), diluted to 33.3 μM and for Cisplatinum (P4394 Sigma) diluted to 40 μM. The stock solution for ActD (A1410 Sigma) was 1 mg/ml and was diluted to 1 μg/ml.\nImage analysis of time lapse movies: A custom written image analysis tool was used developed using the Matlab image processing toolbox environment (Mathworks, Natick, Mass.). The main steps include; image correction, segmentation, tracking of the cells and automated identification of cell phenotypes (mitosis and cell death). Image background correction (flat field correction and background subtraction) was carried out as previously described (Sigal, Milo et al. 2006, supra). […] The main steps of the segmentation process are: 1) Differentiation between cells and background by global image threshold using Otsu's method (Otsu 1979, IEEE Transactions on Systems, Man, and Cybernetics 9(1): 62-66); 2) Segmentation of neighboring cells by applying the seeded watershed segmentation algorithm. Seeds were obtained by smoothening the red intensity image and usage of bright nuclei as cell seeds (by identifying local maxima)—one seed per cell; 3) Nuclei segmentation following cell segmentation; each cell was independently stretched between zero and one and a fixed threshold was used to differentiate between the cytoplasm and the nuclei; 4) Tracking of cells was performed by analyzing the movie from end to start and linking each segmented cell to the cell in the previous image with the closest centroid; 5) The automated cell death identification algorithm utilizes the morphological changes correlated with dying cells: rounding followed by blebbing and an explosion of the outer membrane or its collapse. An artificial neural network (ANN) algorithm was constructed that could identify each one of these morphological patters similar to the method previously described in (Eden 2005, IEEE, Transactions on Medical Imaging 24: 1011-1024). Briefly, two sets of images were constructed: The first contained 400 cell images in different stages of cell death and the second contained 400 live cell images. For each image, a collection of high-level image features was computed. […] This process transforms each image into a multi dimensional vector of features."}, "[5]": {"tested_on": "H1299 non-small cell lung carcinoma cell line", "test": "Time-lapse microscopy of cell death, motility and growth arrest after drug addition", "conditions": "CPT 10 uM", "procedure": "as §1\nDrug Materials: Camptothecin (CPT; C9911 Sigma), was dissolved in DMSO (hybri-max, D2650 Sigma) to achieve a stock solution of 10 mM. In each experiment, drug was diluted to 10 μM in a transparent growth medium (RPMI, X PenStrep, 10% FCS, w/o riboflavin, w/o phenol red, Bet Haemek). Growth medium (2 ml) was replaced by the diluted drug (2 ml) under the microscope. […]"}, "nucleolar proteins": {"tested_on": "nucleolar proteins", "test": "Quantitation of nucleolar translocations of tagged proteins", "conditions": "1 μg/ml", "procedure": "as §2\nThen, for each of the selected clones, the present inventors calculated the ratio of fluorescence intensity between the top and bottom ten percent pixels in individual nuclei and averaged over the population. Clones with a max/min change of over 20 percent in this average during the experiment were inspected manually to verify the source of change in pixel intensity distribution and were classified as clones showing nucleolar translocation.\nFinally, to quantify the extent and direction (nucleoli to nucleoplasm or vise versa) of the translocation, the present inventors calculated the ratio between mean fluorescence intensity of nucleoli vs. nucleoplasm (Rncll/nuc) at the two time points were the max/min ratio was maximized and minimized. […]"}, "DDX5": {"tested_on": "DDX5", "test": "Bimodal behavior of tagged DDX5 in individual cells in response to drugs", "conditions": "Etoposide 33.3 μM, Cis-platinum 40 μM", "procedure": "as §2\nDetermination of ‘bimodal’ behaviors: The coefficient of variance (CV defined as the ration between the std between cells and the mean) was measured for 400 proteins for 47 hours following addition of CPT (at a 20 minute resolution) (see FIGS. 13A-B). All CVs were normalized to average 1 (CV(i,j)/mean(mean(CV)) where i is protein number (i=1 . . . 400) and j is timepoint (j=1 . . . 141)). All proteins deviating 3 standard deviations from the average normalized CV were considered as ‘bimodal’ candidates (N=59). Following manual inspection, 30 of these proteins listed in Table 4 were denoted as bimodal."}}, "note": "Like-named read-outs stand apart in the source and are kept apart here. Numbered stars: 1 amine (or outer) side, 2 acyl side, 3 side chain; on linkers, the order of the positions; unused ones are H or OH. Bridge positions count the residues as written; N and C are the ends. Square brackets hold non-standard residues; d marks the D form. Peptide text beside a SMILES is read from it. I, II: the chains in the order shown. Actinocin(9to1) = Cc1c2oc3c(C)ccc(C(=O)[*:1])c3nc-2c(C(=O)[*:2])c(N)c1=O; NMeV = CN[C@H](C(=O)O)C(C)C; Sar = CNCC(=O)O", "data": [{"smiles": "CC[C@@]1(O)C(=O)OCc2c1cc1n(c2=O)Cc2cc3ccccc3nc2-1", "note": "[CPT, Camptothecin]", "values": [{"measurement": "time within which most TOP1 is degraded", "setting": "TOP1 [1]", "result": "≤ 4", "unit": "h"}, {"measurement": "time to increase in nuclear/cytoplasmic ratio of thyredoxin and thyredoxin reductase", "setting": "[2]; after drug addition", "result": "≤ 8", "unit": "h"}, {"measurement": "proteins showing significant change in nuclear localization (>20% change in cytoplasm/nuclear fluorescence ratio)", "setting": "[2]; all tagged proteins, after CPT addition", "result": "about 1%"}, {"measurement": "largest changes in fluorescence", "setting": "[3]; CPT 10 uM", "result": "about five"}, {"measurement": "median dynamic range of response, change in fluorescence", "setting": "[3]; CPT 10 uM", "result": 1.3, "unit": "fold"}, {"measurement": "proteins showing a decrease in intensity in response to the drug", "setting": "[3]; CPT 10 uM, 48 hours tracking", "result": "about 70%"}, {"measurement": "increase of cell-cell variability (noise) following drug addition, on average", "setting": "[3]; std between cells divided by mean", "result": 30, "unit": "%"}, {"measurement": "timescale of decrease of total cellular fluorescence of tagged TOP1", "setting": "TOP1 [4]; CPT", "result": "under an hour"}, {"measurement": "nuclear exit of tagged TOP1", "setting": "TOP1 [4]; etoposide at equivalently lethal dose, CPT at several doses", "result": "exits from the nucleus to the cytoplasm in a CPT dose dependent manner"}, {"measurement": "timescale of fluorescence accumulation in the cytoplasm in the TOP1 tagged clone", "setting": "TOP1 [4]; following CPT addition", "result": "~5", "unit": "h"}, {"measurement": "time for TOP1 levels in the nucleoli to drop after drug addition", "setting": "TOP1 [4]; tagged TOP1, individual cells", "result": "less than 2 minutes"}, {"measurement": "time to loss of motility and growth arrest after drug addition", "setting": "[5]", "result": "about 10 hours"}, {"measurement": "cells showing cell rounding and blebbing (morphological correlates of cell death)", "setting": "[5]; after 36 hours", "result": "about 15%"}]}, {"smiles": "Cc1c2oc3c(C)ccc(C(=O)N[C@@H]4C(=O)N[C@H](C(C)C)C(=O)N5CCC[C@H]5C(=O)N(C)CC(=O)N(C)[C@@H](C(C)C)C(=O)O[C@@H]4C)c3nc-2c(C(=O)N[C@@H]2C(=O)N[C@H](C(C)C)C(=O)N3CCC[C@H]3C(=O)N(C)CC(=O)N(C)[C@@H](C(C)C)C(=O)O[C@@H]2C)c(N)c1=O", "note": "[actinomycinD, actinomycin-D] (I: T[dV]P[Sar][NMeV] / II: T[dV]P[Sar][NMeV]; ester I:1-I:C, II:1-II:C; linker I:N-II:N via Actinocin(9to1))", "values": [{"measurement": "proteins with nucleolar dynamics similar to those seen with CPT", "setting": "nucleolar proteins", "result": "4 out of 5"}]}, {"smiles": "N.N.[Cl][Pt][Cl]", "note": "[cisplatin, Cisplatinum]", "values": [{"measurement": "bimodal behavior of tagged DDX5", "setting": "DDX5", "result": "did not show bimodal behavior"}, {"measurement": "effects on TOP1 (nucleolar exit, degradation, cytoplasmic accumulation)", "setting": "TOP1 [4]", "result": "did not show any of these effects on TOP1"}]}, {"smiles": "COc1cc([C@@H]2c3cc4c(cc3[C@@H](O[C@@H]3O[C@@H]5CO[C@@H](C)O[C@H]5[C@H](O)[C@H]3O)[C@H]3COC(=O)[C@H]23)OCO4)cc(OC)c1O", "note": "[etoposide, Etoposide]", "values": [{"measurement": "bimodal behavior of tagged DDX5", "setting": "DDX5", "result": "did not show bimodal behavior"}, {"measurement": "nuclear exit of tagged TOP1", "setting": "TOP1 [4]", "result": "does not occur"}, {"measurement": "effects on TOP1 (nucleolar exit, degradation, cytoplasmic accumulation)", "setting": "TOP1 [4]", "result": "did not show any of these effects on TOP1"}]}]}
